Assay results as given in patent publication US11554154B2, “Polygala extract for the treatment of major depressive disorder” (priority 2020, dated 2023).

Test system: tetrabenazine-induced hypothermia
Assay: In vivo tetrabenazine-induced hypothermia test
Details: oral gavage 60 minutes before TBZ i.p.; ICR male mice
Protocol: FIG. 1 depicts in vivo tetrabenazine-induced hypothermia test. Imipramine (positive control), PDC-1421, 1st Fraction 10-19, 1st Fraction 33, 2nd Fraction-1 (the major components are polygalatenosides A/B/C), 2nd Fraction-3, TMCA, Polygalaxanthone III, Onjisaponin B, Sibiricose A5, 7-O-Methylmangiferin and Sibiricaxanthone B are administered as test substances and the temperature recovery (%) is documented as shown in figure. The around 70% of PDC-1421 in Example 1 are composed of sucroester (34%), saponin (18%) and xanthone (17%). Some active compounds of powder product in Example 1, polygalatenosides A/B/C (2nd fraction 1), ploygalaxanthone III, sibiricoses A5, and 7-O-methylmangiferin are also discovered through in vivo tetrabenazine-induced hypothermia test (one of rodent models for evaluating antidepressant-like activity in mice). Imipramine (positive control), PDC-1421, 1st Fraction 10-19, 1st Fraction 33, 2nd Fraction-1 (the major components are polygalatenosides A/B/C), 2nd Fraction-3, TMCA, Polygalaxanthone III, Onjisaponin B, Sibiricose A5, 7-O-Methylmangiferin and Sibiricaxanthone B were dissolved in water for injection (WFI) and administered by oral gavage. The dosing volume was 10 mL/kg. Test substances and vehicle (WFI) were administered by oral gavage to groups of 8 ICR male mice weighing 23±3 g 60 minutes before intraperitoneal injection of tetrabenazine (TBZ, 85 ma/kg). Body temperature was recorded before (0 min), and 60, 90 and 120 min after TBZ challenge.

Row | Structure (SMILES) | activity in tetrabenazine-induced hypothermia test (temperature recovery)
1 | COc1cc2c(=O)c3c(O)c([C@@H]4O[C@H](CO)[C@@H](O)[C@H](O)[C@H]4O)c(O)cc3oc2cc1O [7-O-methylmangiferin] | active
2 | COc1cc2c(=O)c3c(O)c([C@@H]4O[C@H](CO[C@@H]5OC[C@](O)(CO)[C@H]5O)[C@@H](O)[C@H](O)[C@H]4O)c(O)cc3oc2cc1O [ploygalaxanthone III] | active
3 | COc1cc(/C=C/C(=O)O[C@H]2[C@H](O)[C@@H](CO)O[C@@]2(CO)O[C@H]2O[C@H](CO)[C@@H](O)[C@H](O)[C@H]2O)ccc1O [sibiricoses A5] | active
